Consider two molecules from article PMC5524191 (ACS chemical biology, 2016).

This test has as its target 20S proteasome (Homo sapiens, UniProt P28072+P28074+Q99436). Description: activation of Ac-Arg-Leu-Arg-AMC hydrolysis. The format is biochemical. The conditions noted are these: activator, trypsin-like activity.

As for `C=C(CC)C(=O)c1ccc(OCC(=O)NCCCCCCNC(=O)[C@H](CCCNC(=O)OC(C)(C)C)NC(=O)OC(C)(C)C)c(Cl)c1Cl` [compound 4, EA-B2O], the fold activation result was “Activation of the trypsin-like subunits was also observed with EA-B1G and EA-B2O”.
Consider `C=C(CC)C(=O)c1ccc(OCC(=O)NCCCCCCNC(=O)CNC(=O)OC(C)(C)C)c(Cl)c1Cl` [compound 5, EA-B1G], for which the fold activation entry was “Activation of the trypsin-like subunits was also observed with EA-B1G and EA-B2O”.
